The results in this text go back to ChEMBL document CHEMBL5528074 (J Med Chem, 2024).

Data set [1] concerns the target T1, G-protein coupled receptor 183 (Homo sapiens, UniProt P32249).
Description: Antagonist activity at GPR183 (unknown origin) transfected in HEK293 cells incubated for 30 mins by Glosensor cAMP assay
Data set [2] is described as follows: Metabolic stability in mouse liver microsomes assessed as intrinsic clearance. The format is ADME, Microsome. The note with it: read-out: CLH.
Data set [3] concerns the target T1, G-protein coupled receptor 183. As to the kind of experiment: Antagonist activity at GPR183 (unknown origin) incubated for 30 mins by calcium mobilization assay. The class given is functional.
Data set [4] is described as follows: Cmax in C57BL/6 mouse at 1 mg/kg, iv measured upto 24 hrs by LC-MS/MS analysis. The class given is ADME, organism-based. The note with it: in vivo.
Another data set concerns U-937. In words: Antimigratory activity against human U-937 cells assessed as inhibition of 7alpha,25-dihydroxycholesterol induced cell migration by CCK-8 method. The class given is functional, cell-based.
The nature of data set [5]: Half life in C57BL/6 mouse at 1 mg/kg, iv measured upto 24 hrs by LC-MS/MS analysis. The format is ADME, organism-based. The note with it: in vivo.
Data set [6] can be described thus: Half life in C57BL/6 mouse at 3 mg/kg, po measured upto 24 hrs by LC-MS/MS analysis. The class given is ADME, organism-based. The note with it: in vivo.
The nature of data set [7]: AUC infinity in C57BL/6 mouse at 1 mg/kg, iv measured upto 24 hrs by LC-MS/MS analysis. The class given is ADME, organism-based. The settings on record: in vivo.
Data set [8] in a line: AUC infinity in C57BL/6 mouse at 3 mg/kg, po measured upto 24 hrs by LC-MS/MS analysis. The class given is ADME, organism-based. The note with it: in vivo.
The nature of data set [9]: Cmax in C57BL/6 mouse at 3 mg/kg, po measured upto 24 hrs by LC-MS/MS analysis. The format is ADME, organism-based. The note with it: in vivo.
Data set [10] is described as follows: Apparent volume of distribution in C57BL/6 mouse at 1 mg/kg, iv measured upto 24 hrs by LC-MS/MS analysis. The format is ADME, organism-based. The settings on record: in vivo, read-out: Vz.
The nature of data set [11]: Oral bioavailability in C57BL/6 mouse at 3 mg/kg measured upto 24 hrs by LC-MS/MS analysis. The note with it: in vivo. The class given is ADME, organism-based.
Data set [12] in a line: Clearance in C57BL/6 mouse at 1 mg/kg, iv measured upto 24 hrs by LC-MS/MS analysis. The class given is ADME, organism-based. The note with it: in vivo.
Data set [13] deals with T1, G-protein coupled receptor 183. As to the kind of experiment: Agonist activity at GPR183 (unknown origin) transfected in HEK293 cells assessed as reduction in forskolin induced cAMP generation incubated for 30 mins by Glosensor cAMP assay. The class given is functional, cell-based.
The target is the same in data set [14]. In words: Agonist activity at GPR183 (unknown origin) transfected in HEK293 cells cotransfected with CRE-luciferase plasmid assessed as impairment of forskolin induced luciferase activity preincubated for 30 mins followed by forskolin induction and measured after 4 hrs by dual luciferase assay. The format is functional, cell-based.
Data set [15] has the same target. As to the kind of experiment: Agonist activity at GPR183 (unknown origin) transfected in HEK293 cells co-expressing LgBiT-fused SmBiT-beta-arrestin assessed as beta-arrestin recruitment using nanoluciferase as substrate incubated for 30 mins by bioluminescence based NanoBiT assay. The format is functional, cell-based.

Each structure is given as a SMILES string.

T1 sequence (P32249 whole entry): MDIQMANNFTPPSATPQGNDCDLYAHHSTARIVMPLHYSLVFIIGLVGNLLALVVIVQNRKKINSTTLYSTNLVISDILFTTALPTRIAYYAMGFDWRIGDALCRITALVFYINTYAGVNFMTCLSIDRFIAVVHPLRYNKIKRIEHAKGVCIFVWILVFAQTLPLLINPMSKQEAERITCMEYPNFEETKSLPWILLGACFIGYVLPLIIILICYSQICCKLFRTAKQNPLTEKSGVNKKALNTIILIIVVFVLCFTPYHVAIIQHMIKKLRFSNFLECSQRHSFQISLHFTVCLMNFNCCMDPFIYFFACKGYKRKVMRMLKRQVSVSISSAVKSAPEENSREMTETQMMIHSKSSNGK

As for `COc1ccc(C(=O)NC23CC(NC(=O)/C=C/c4ccc(Br)cc4)(C2)C3)cc1`, the 50% inhibitory concentration (IC50) in data set [1] is greater than 10000 nM.
The same measure, in the same setting: in the case of `COc1ccc(NC(=O)C(F)(F)C2CCN(C(=O)/C=C/c3ccc(Br)cc3)CC2)cc1` it was 5.7 nM.
Same read-out and setting: next, `CN(C)c1nc2ccc(C(=O)N3CCN(C(=O)/C=C/c4ccc(Br)cc4)CC3)cc2s1`: 54.9 nM; `COc1ccc(C(=O)N2CC3CCC2CN3C(=O)/C=C/c2ccc(Br)cc2)cc1` (stereo not drawn): greater than 10000 nM.
Same read-out and setting: next, `CNc1nc2ccc(C(=O)N3CCN(C(=O)/C=C/c4ccc(Br)cc4)CC3)cc2s1`: 6.23 nM.
In the case of `O=C(COc1ccc2ccccc2c1)N1CCN(C(=O)Cc2ccccc2)CC1`, the microsomal CLint in data set [2] was 301 µL/min/mg.
`Nc1nc2ccc(C(=O)N3CCN(C(=O)/C=C/c4ccc(C(F)(F)F)c(Cl)c4)CC3)cc2s1` yielded a concentration for half-maximal inhibition (IC50) in data set [1] of 74.5 nM.
On the same count and under the same terms, next, `Nc1nc2ccc(C(=O)N3CCN(C(=O)/C=C/c4ccc5c(c4)OC(F)(F)O5)CC3)cc2s1`: 43.6 nM.
In data set [1], `Cn1ccc2ccc(C(=O)N3CCN(C(=O)/C=C/c4ccc(Br)cc4)CC3)cc21` displayed an IC50 of 7.9 nM.
On to `O=C(/C=C/c1ccc(Br)cc1)N1CCN(C(=O)c2ccc3[nH]c(=O)[nH]c3c2)CC1`, for which, in [1], the 50% inhibitory concentration (IC50) is greater than 10000 nM.
The same measure, in the same setting: in the case of `O=C(/C=C/c1ccc(Br)cc1)N1CCN(C(=O)c2ccc3nc(C(F)(F)F)sc3c2)CC1` it was 2.54 nM.
For the compound `COc1cc(C(C)NC(=O)Cc2c(C)nc(C)[nH]c2=O)cc(OC)c1OC` (stereo not drawn), the 50% inhibitory concentration (IC50) in data set [3] is 8.31 nM.
As for `Cn1cnc2cc(C(=O)N3CCN(C(=O)/C=C/c4ccc(Br)cc4)CC3)ccc21`, the 50% inhibitory concentration (IC50) in data set [1] amounted to 442 nM.
Still for that read-out and setting: in the case of `N#Cc1ccc(/C=C/C(=O)N2CCN(C(=O)c3ccc4nc(N)sc4c3)CC2)cc1` it was 260 nM; in that of `COc1ccc(NC(=O)CC2CCN(C(=O)/C=C/c3ccc(Br)cc3)CC2(F)F)cc1` (stereo not drawn), 54.2 nM; in that of `Nc1nc2ccc(C(=O)N3CCN(C(=O)/C=C/c4ccc(F)c(F)c4)CC3)cc2s1`, 1250 nM.
Regarding `O=C(/C=C/c1ccc(Br)cc1)N1CCN(C(=O)c2ccc3nc(S)[nH]c3c2)CC1`, in [1], the IC50 is greater than 10000 nM.
On to `COc1ccc(C(=O)N2CCN(C(=O)/C=C/c3ccc(Br)cc3)CC2)cc1`, for which the Cmax came to 612 ng/mL in data set [4] and 640 ng/mL in data set [9]. The 50% inhibitory concentration (IC50) in the data set on U-937 is 4.5 nM. Further, the half-life in data set [5] was 1.17 h; in [6], 2.19 h. Besides, the AUC(0-inf) in data set [7] is 966 ng·h/mL; in [8], 2070 ng·h/mL. Further, the Vd in data set [10] is 1.75 L/kg. The compound further gave a bioavailability in data set [11] of 71.4%. The clearance in data set [12] was 17.3 mL/min/kg. In addition, the microsomal CLint in data set [2] was determined as 46 µL/min/mg.
Regarding `COc1ccc(NC(=O)CC2CCN(C(=O)/C=C/c3ccc(Br)cc3)CC2)cc1`, in [1], the IC50 is 19.7 nM.
On the same count and under the same terms, next, `O=C(Nc1nc2ccc(C(=O)N3CCN(C(=O)/C=C/c4ccc(Br)cc4)CC3)cc2s1)C1CC1`: 76.9 nM.
`COc1cc2c(cc1OC)CN(C(=O)NOCc1ccccc1)CC2`: the half-maximal inhibitory concentration (IC50) in [3] stood at 13.9 nM.
For the compound `Nc1nc2ccc(C(=O)N3CCN(C(=O)/C=C/c4ccc(Cl)cc4)CC3)cc2s1`, in data set [1], the 50% inhibitory concentration (IC50) stood at 15.9 nM.
For the compound `Nc1nc2ccc(C(=O)N3CCN(C(=O)/C=C/c4ccc(F)cc4)CC3)cc2s1`, the concentration for half-maximal inhibition (IC50) in [1] stood at 866 nM.
Still for that read-out and setting: in the case of `CC(=O)Nc1nc2ccc(C(=O)N3CCN(C(=O)/C=C/c4ccc(Br)cc4)CC3)cc2s1` it was 18.9 nM.
`COc1ccc(C(=O)N2CC3CCC(C2)N3C(=O)/C=C/c2ccc(Br)cc2)cc1` came in with an IC50 in [1] greater than 10000 nM.
Same read-out and setting: in the case of `COc1ccc(C(=O)NCC2(F)CCN(C(=O)/C=C/c3ccc(Br)cc3)CC2)cc1` it was 66.2 nM; in that of `Cc1cc2ccc(C(=O)N3CCN(C(=O)/C=C/c4ccc(Br)cc4)CC3)cc2[nH]1`, 7.61 nM; in that of `Nc1nc2ccc(C(=O)N3CCN(C(=O)/C=C/c4ccc5c(c4)CCO5)CC3)cc2s1`, 386 nM.
In the case of `Cc1nc2ccc(C(=O)N3CCN(C(=O)/C=C/c4ccc(Br)cc4)CC3)cc2[nH]1`, the IC50 in [1] was greater than 10000 nM.
Still for that read-out and setting: in the case of `Cc1c[nH]c2cc(C(=O)N3CCN(C(=O)/C=C/c4ccc(Br)cc4)CC3)ccc12` it was 18.9 nM; in that of `COc1ccc(C(=O)NCC2CCN(C(=O)/C=C/c3ccc(Br)cc3)CC2)cc1`, greater than 10000 nM; in that of `O=C(/C=C/c1ccc(Br)cc1)N1CCN(C(=O)c2ccc3ncsc3c2)CC1`, 3.05 nM.
Same read-out and setting: next, `Nc1nc2ccc(C(=O)N3CCN(C(=O)/C=C/c4ccc(F)cc4F)CC3)cc2s1`: 8310 nM.
On to `C[C@H](CCCC(C)(C)O)[C@H]1CCC2C3C(CC[C@@]21C)[C@@]1(C)CC[C@H](O)CC1=C[C@H]3O` (stereo partly drawn), for which the EC50 came to 0.15 nM in data set [13], 3.22 nM in data set [14] and 4.63 nM in data set [15]. Further, the Activity result in data set [14] (filed as agonist, time 4.5 hrs) was “Dose-Dependent Effect”.
`Nc1nc2ccc(C(=O)N3CCN(C(=O)/C=C/c4ccc(C(F)(F)F)cc4)CC3)cc2s1` displayed an IC50 in data set [1] of 30.1 nM.
